For one test, the target named is T1, CBP (Homo sapiens, UniProt Q92793).
T1 construct: endogenous in cells; host or cells: 22Rv1 (ATCC CRL-2505) human prostate cancer cells
Nature of the test: CBP degradation in 22Rv1 cells (5 h). Particulars: 22Rv1 cells, 5 h; for Dmax: 22Rv1, 5 h, read-out: CBP Degradation (22Rv1, 5 h) DCmax. It counts as cell-based. An excerpt:
(§1) Biological Assays. […] Cells with 3-8 passages after purchase were used in experiments.

Another test has as its target T2, P300 (Homo sapiens, UniProt Q09472).
T2 construct: endogenous in cells; host or cells: 22Rv1 (ATCC CRL-2505) human prostate cancer cells
Briefly: P300 degradation in 22Rv1 cells (5 h). It counts as cell-based. The note with it: 22Rv1 cells, 5 h; for Dmax: read-out: P300 Degradation (22Rv1, 5 h) DCmax.
Excerpt: as §1

For another test, the system named is 22Rv1 cells. Briefly: Cell growth inhibition assay (CellTiter-Glo) in 22Rv1. It counts as cell-based, human. The note with it: Homo sapiens, 22Rv1, 96 h, 22Rv1 cells, 96 h incubation; read-out: Cell Growth Inhibition (IC50) 22Rv1. A digest of the protocol: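 22Rv1 prostate cancer cells (passages 3-8, DMEM with 10% FBS) were seeded at 4000 cells/well with compound, 3-fold dilutions from 10 μM final. After 96 h at 37° C and 5% CO2, growth was read by CellTiter-Glo 2.0 luminescence.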
A general note: Cellular ATP, detected with luciferase, serves as a proxy for viable cell number.

The test system of the next test is HL60. Briefly: Cell growth inhibition in HL60. Type of test: cell-based. Particulars: Homo sapiens, HL-60, HL60 cells; read-out: Cell Growth Inhibition (IC50) HL60.

pIC50: −log10 of the molar value. Some results are limits rather than exact numbers.

T2 sequence (Q09472 whole entry): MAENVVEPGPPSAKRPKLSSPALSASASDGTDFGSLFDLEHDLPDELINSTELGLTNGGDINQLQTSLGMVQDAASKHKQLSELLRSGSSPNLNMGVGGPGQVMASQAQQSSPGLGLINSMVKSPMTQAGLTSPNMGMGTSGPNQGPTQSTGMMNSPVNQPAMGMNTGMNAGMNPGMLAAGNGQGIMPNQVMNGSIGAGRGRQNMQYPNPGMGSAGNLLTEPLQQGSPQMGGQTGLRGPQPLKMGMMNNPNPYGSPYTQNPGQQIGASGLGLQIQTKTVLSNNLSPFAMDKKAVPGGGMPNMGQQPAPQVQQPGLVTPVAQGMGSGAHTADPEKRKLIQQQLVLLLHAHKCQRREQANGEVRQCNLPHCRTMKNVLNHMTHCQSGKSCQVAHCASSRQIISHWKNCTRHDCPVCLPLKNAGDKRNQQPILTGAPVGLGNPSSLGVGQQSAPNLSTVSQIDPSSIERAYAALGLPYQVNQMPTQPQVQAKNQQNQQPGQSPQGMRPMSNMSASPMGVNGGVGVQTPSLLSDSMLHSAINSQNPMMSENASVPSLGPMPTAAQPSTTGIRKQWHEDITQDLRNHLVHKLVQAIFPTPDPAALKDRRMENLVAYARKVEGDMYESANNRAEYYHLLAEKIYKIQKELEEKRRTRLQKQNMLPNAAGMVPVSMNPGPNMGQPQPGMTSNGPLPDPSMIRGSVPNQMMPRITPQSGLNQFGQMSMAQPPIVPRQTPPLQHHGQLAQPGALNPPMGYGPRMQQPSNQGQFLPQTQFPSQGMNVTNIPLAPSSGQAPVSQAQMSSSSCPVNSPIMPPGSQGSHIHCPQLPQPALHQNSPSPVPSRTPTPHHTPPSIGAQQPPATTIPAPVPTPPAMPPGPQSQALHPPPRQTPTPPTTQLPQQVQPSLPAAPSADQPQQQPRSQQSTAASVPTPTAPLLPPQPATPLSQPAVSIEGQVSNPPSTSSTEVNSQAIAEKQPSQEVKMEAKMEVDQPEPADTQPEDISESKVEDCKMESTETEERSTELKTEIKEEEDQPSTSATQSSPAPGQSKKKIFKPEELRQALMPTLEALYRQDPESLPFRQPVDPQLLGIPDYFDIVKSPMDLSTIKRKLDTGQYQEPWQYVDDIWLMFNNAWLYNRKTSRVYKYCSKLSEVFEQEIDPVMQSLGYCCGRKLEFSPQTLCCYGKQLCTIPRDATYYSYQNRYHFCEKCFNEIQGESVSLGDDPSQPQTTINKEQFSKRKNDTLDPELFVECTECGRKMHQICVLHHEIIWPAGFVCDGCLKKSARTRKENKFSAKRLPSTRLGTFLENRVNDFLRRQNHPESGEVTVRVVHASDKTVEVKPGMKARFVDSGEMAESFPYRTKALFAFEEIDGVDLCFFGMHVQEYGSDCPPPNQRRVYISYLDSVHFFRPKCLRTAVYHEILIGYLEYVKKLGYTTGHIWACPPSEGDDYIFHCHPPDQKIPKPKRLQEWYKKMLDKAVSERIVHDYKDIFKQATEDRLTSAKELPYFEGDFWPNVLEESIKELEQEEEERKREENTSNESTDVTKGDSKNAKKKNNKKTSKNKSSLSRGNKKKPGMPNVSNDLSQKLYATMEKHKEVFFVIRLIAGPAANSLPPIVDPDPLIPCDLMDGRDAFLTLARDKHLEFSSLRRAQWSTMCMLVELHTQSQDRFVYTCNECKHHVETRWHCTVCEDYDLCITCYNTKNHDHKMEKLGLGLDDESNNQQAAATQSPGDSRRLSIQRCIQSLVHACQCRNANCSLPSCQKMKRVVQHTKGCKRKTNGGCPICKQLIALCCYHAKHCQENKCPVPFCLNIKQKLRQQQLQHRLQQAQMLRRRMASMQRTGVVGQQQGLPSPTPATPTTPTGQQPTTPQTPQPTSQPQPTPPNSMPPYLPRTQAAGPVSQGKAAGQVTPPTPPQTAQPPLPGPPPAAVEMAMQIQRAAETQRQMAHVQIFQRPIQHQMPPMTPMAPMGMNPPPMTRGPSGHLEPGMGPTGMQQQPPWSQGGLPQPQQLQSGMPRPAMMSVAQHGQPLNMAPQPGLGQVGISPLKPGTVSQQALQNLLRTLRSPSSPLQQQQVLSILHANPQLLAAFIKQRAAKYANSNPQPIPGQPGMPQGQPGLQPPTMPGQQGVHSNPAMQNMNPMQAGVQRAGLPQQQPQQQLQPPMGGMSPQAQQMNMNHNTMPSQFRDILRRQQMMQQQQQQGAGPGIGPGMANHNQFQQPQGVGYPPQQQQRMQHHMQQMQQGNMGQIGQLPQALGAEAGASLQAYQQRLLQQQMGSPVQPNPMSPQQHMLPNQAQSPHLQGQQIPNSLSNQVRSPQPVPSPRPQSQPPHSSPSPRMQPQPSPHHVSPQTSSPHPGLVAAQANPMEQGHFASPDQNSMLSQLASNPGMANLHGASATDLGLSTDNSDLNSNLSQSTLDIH
T1 sequence (Q92793 whole entry): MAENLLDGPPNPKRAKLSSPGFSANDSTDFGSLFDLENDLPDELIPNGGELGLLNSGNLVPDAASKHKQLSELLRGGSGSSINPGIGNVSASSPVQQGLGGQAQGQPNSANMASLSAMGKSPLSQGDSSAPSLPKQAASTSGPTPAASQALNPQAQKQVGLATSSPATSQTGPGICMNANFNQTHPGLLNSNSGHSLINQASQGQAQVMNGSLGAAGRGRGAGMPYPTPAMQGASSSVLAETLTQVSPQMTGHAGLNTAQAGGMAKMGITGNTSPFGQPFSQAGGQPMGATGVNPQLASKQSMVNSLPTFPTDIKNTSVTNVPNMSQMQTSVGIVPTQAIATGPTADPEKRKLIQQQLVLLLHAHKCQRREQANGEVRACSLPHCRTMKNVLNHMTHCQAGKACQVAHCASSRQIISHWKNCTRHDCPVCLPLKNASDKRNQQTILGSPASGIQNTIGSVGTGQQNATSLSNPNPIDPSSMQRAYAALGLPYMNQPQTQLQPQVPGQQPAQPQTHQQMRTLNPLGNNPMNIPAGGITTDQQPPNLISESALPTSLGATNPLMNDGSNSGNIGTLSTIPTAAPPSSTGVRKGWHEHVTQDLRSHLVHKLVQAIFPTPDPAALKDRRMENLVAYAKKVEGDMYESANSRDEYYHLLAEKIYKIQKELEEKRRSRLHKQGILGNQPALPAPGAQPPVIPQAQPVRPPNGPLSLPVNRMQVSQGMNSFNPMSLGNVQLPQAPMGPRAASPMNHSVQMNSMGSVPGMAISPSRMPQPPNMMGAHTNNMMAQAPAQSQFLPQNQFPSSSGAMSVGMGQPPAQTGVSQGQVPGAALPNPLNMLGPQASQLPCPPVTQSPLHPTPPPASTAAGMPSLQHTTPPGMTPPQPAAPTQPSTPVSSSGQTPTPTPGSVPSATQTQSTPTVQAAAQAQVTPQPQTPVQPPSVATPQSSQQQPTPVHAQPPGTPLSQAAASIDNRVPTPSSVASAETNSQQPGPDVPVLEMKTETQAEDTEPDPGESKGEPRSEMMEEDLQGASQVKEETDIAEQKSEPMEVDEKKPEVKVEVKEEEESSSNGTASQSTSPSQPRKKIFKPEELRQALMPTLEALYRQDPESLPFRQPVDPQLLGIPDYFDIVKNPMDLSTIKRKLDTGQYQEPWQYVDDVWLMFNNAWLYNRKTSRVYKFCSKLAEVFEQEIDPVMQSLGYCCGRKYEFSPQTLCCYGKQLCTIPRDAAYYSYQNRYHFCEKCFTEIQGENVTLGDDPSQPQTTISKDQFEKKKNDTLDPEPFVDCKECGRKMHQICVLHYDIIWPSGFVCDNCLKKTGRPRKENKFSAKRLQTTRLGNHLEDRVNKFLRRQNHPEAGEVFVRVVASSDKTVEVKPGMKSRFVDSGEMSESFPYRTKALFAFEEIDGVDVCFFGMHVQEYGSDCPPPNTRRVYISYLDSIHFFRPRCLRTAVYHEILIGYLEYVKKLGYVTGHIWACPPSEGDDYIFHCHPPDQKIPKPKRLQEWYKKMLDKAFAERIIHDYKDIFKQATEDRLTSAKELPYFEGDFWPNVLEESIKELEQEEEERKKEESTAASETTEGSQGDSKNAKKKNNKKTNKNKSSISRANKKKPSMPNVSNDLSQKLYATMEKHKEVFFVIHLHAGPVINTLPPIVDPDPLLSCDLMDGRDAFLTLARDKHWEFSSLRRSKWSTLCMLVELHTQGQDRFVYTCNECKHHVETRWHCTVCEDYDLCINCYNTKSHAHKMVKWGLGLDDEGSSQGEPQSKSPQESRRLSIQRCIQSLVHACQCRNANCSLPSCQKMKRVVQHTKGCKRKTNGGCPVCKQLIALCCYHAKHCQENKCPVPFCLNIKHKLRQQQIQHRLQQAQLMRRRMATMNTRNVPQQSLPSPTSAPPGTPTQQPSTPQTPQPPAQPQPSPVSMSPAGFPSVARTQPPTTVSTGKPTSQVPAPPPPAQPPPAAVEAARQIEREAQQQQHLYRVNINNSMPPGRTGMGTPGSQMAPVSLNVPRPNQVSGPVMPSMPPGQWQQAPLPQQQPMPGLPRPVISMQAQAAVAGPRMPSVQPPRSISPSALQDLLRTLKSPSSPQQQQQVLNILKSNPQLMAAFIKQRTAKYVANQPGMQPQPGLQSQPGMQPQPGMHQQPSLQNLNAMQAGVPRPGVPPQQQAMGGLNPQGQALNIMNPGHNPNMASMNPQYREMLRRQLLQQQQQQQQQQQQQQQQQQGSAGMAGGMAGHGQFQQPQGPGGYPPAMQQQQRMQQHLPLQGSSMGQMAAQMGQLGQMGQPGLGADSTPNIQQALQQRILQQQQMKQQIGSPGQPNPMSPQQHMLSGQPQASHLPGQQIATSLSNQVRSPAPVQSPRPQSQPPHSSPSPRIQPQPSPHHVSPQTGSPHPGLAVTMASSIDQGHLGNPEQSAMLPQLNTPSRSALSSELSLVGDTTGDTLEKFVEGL

In general, DC50 refers to the midpoint of the concentration-degradation curve. Read a high DC50 as degradation only at high concentration. One may read the pIC50 as the negative decadic logarithm of the IC50, by convention in mol/L. For the compound `Cn1cc(-c2cc3c(cc2C(F)F)N(c2nn(C4CCN(C(=O)CN5Cc6cc7c(cc6C5)C(=O)N(C5CCC(=O)NC5=O)C7=O)CC4)c4c2CN(CC(F)(F)F)CC4)CCC3)cn1` (stereo not shown), the Dmax at CBP and at P300 was below 50% each time. Further, the DC50 at CBP is below 1000 nM; at P300, above 1000 nM. Besides, the pIC50 in the test on 22Rv1 cells was below 5.00; in the test on HL60, above 5.00.

On to `CC(=O)N1CCc2c(c(N3CCCc4cc(-c5cnn(C)c5)c(C(F)F)cc43)nn2[C@H]2CC[C@@H](CN3CCc4cc5c(cc4C3)C(=O)N(C3CCC(=O)NC3=O)C5=O)CC2)C1` (relative stereo) [CP-050, 6-((4-(5-acetyl-3-(7-(difluoromethyl)-6-(1-methyl-1H-pyrazol-4-yl)-3,4-dihydroquinolin-1(2H)-yl)-4,5,6,7-tetrahydro-1H-pyrazolo[4,3-c]pyridin-1-yl)cyclohexyl)methyl)-2-(2,6-dioxopiperidin-3-yl)-5,6,7,8-tetrahydro-1H-pyrrolo[3,4-g]isoquinoline-1,3(2H)-dione], for which the Dmax at CBP and at P300 was above 90% each time. In addition, the DC50 at CBP and on P300 was below 10 nM in each case. The pIC50 in the test with 22Rv1 cells and in the test with HL60 was above 7.00 throughout.

On to `CC(=O)N1CCc2c(c(N3CCCc4cc(C)c(C(F)F)cc43)nn2C2CCN(C(=O)CN3Cc4cc5c(cc4C3)C(=O)N(C3CCC(=O)NC3=O)C5=O)CC2)C1` (stereo not shown) [CP-011, 6-(2-(4-(5-acetyl-3-(7-(difluoromethyl)-6-methyl-3,4-dihydroquinolin-1(2H)-yl)-4,5,6,7-tetrahydro-1H-pyrazolo[4,3-c]pyridin-1-yl)piperidin-1-yl)-2-oxoethyl)-2-(2,6-dioxopiperidin-3-yl)-6,7-dihydropyrrolo[3,4-f]isoindole-1,3(2H,5H)-dione], for which the Dmax was above 90% at CBP and above 70% at P300. Moreover, the half-maximal degradation concentration (DC50) on CBP and at P300 was below 10 nM in each case. Moreover, the negative logarithm of the IC50 (pIC50) in the test on 22Rv1 cells and with HL60 was above 6.00 each time.

On to `CCc1cc2c(cc1C(F)F)N(c1nn(C3CCN(C(=O)CN4Cc5cc6c(cc5C4)C(=O)N(C4CCC(=O)NC4=O)C6=O)CC3)c3c1CN(C(C)=O)CC3)CCC2` (stereo not shown) [CP-012, 6-(2-(4-(5-acetyl-3-(7-(difluoromethyl)-6-ethyl-3,4-dihydroquinolin-1(2H)-yl)-4,5,6,7-tetrahydro-1H-pyrazolo[4,3-c]pyridin-1-yl)piperidin-1-yl)-2-oxoethyl)-2-(2,6-dioxopiperidin-3-yl)-6,7-dihydropyrrolo[3,4-f]isoindole-1,3(2H,5H)-dione], for which the values for the Dmax on CBP and on P300 were above 90% and above 70%, respectively. For the same compound, the DC50 at CBP and on P300 was below 10 nM in each case. The negative-log IC50 (pIC50) was above 6.00 with 22Rv1 cells and above 7.00 with HL60.

Consider `CC(=O)N1CCc2c(c(N3CCCc4cc(C5CC5)c(C(F)F)cc43)nn2C2CCN(C(=O)CN3Cc4cc5c(cc4C3)C(=O)N(C3CCC(=O)NC3=O)C5=O)CC2)C1` (stereo not shown) [CP-013, 6-(2-(4-(5-acetyl-3-(6-cyclopropyl-7-(difluoromethyl)-3,4-dihydroquinolin-1(2H)-yl)-4,5,6,7-tetrahydro-1H-pyrazolo[4,3-c]pyridin-1-yl)piperidin-1-yl)-2-oxoethyl)-2-(2,6-dioxopiperidin-3-yl)-6,7-dihydropyrrolo[3,4-f]isoindole-1,3(2H,5H)-dione], for which the Dmax on CBP and on P300 was above 90% throughout. Moreover, the half-maximal degradation concentration (DC50) at CBP and on P300 was below 10 nM in each case. The pIC50 with 22Rv1 cells and in the test on HL60 was above 6.00 each time.

In the case of `CC(=O)N1CCc2c(c(N3CCCc4cc(-c5cnn(CCCCN6Cc7cc8c(cc7C6)C(=O)N(C6CCC(=O)NC6=O)C8=O)c5)c(C(F)F)cc43)nn2C2CCOCC2)C1` (stereo not shown) [CP-068, 6-(4-(4-(1-(5-acetyl-1-(tetrahydro-2H-pyran-4-yl)-4,5,6,7-tetrahydro-1H-pyrazolo[4,3-c]pyridin-3-yl)-7-(difluoromethyl)-1,2,3,4-tetrahydroquinolin-6-yl)-1H-pyrazol-1-yl)butyl)-2-(2,6-dioxopiperidin-3-yl)-6,7-dihydropyrrolo[3,4-f]isoindole-1,3(2H,5H)-dione], on CBP, the Dmax is above 90% and the DC50 is below 10 nM. Also, the negative-log IC50 (pIC50) in the test on 22Rv1 cells was above 7.00. In the test with HL60, the negative-log IC50 (pIC50) is above 7.00.

With `CC(=O)N1CCc2c(c(N3CCCc4cc(-c5cnn(CCCCCN6CCc7cc8c(cc7C6)C(=O)N(C6CCC(=O)NC6=O)C8=O)c5)c(C(F)F)cc43)nn2C2CCOCC2)C1` (stereo not shown) [CP-069, 6-(5-(4-(1-(5-acetyl-1-(tetrahydro-2H-pyran-4-yl)-4,5,6,7-tetrahydro-1H-pyrazolo[4,3-c]pyridin-3-yl)-7-(difluoromethyl)-1,2,3,4-tetrahydroquinolin-6-yl)-1H-pyrazol-1-yl)pentyl)-2-(2,6-dioxopiperidin-3-yl)-5,6,7,8-tetrahydro-1H-pyrrolo[3,4-g]isoquinoline-1,3(2H)-dione], the Dmax at CBP was above 70%. The DC50 at CBP is below 10 nM. Further, the negative-log IC50 (pIC50) is above 6.00 in the test with 22Rv1 cells and above 7.00 with HL60.

As for `CC(=O)N1CCc2c(c(N3CCCc4cc(-c5cnn(CCCCN6CCc7cc8c(cc7C6)C(=O)N(C6CCC(=O)NC6=O)C8=O)c5)c(C(F)F)cc43)nn2C2CCOCC2)C1` (stereo not shown) [CP-070, 6-(4-(4-(1-(5-acetyl-1-(tetrahydro-2H-pyran-4-yl)-4,5,6,7-tetrahydro-1H-pyrazolo[4,3-c]pyridin-3-yl)-7-(difluoromethyl)-1,2,3,4-tetrahydroquinolin-6-yl)-1H-pyrazol-1-yl)butyl)-2-(2,6-dioxopiperidin-3-yl)-5,6,7,8-tetrahydro-1H-pyrrolo[3,4-g]isoquinoline-1,3(2H)-dione], on CBP, the Dmax was above 70% and the half-maximal degradation concentration (DC50) was below 10 nM. For the same compound, the pIC50 in the test with 22Rv1 cells is above 6.00. For the same compound, the negative-log IC50 (pIC50) in the test on HL60 is above 7.00.

`CC(=O)N1CCc2c(c(N3CCCc4cc(-c5cnn(C6CCN(C(=O)CN7CCc8cc9c(cc8C7)C(=O)N(C7CCC(=O)NC7=O)C9=O)CC6)c5)c(C(F)F)cc43)nn2C2CCOCC2)C1` (stereo not shown) [CP-071, 6-(2-(4-(4-(1-(5-acetyl-1-(tetrahydro-2H-pyran-4-yl)-4,5,6,7-tetrahydro-1H-pyrazolo[4,3-c]pyridin-3-yl)-7-(difluoromethyl)-1,2,3,4-tetrahydroquinolin-6-yl)-1H-pyrazol-1-yl)piperidin-1-yl)-2-oxoethyl)-2-(2,6-dioxopiperidin-3-yl)-5,6,7,8-tetrahydro-1H-pyrrolo[3,4-g]isoquinoline-1,3(2H)-dione]: at CBP, the Dmax is above 90%. Besides, at CBP, the DC50 was below 10 nM. For the same compound, the pIC50 was above 6.00 in the test on 22Rv1 cells and above 7.00 in the test on HL60.

As for `CC(=O)N1CCc2c(c(N3CCCc4cc(-c5cnn(C6CCN(C(=O)CN7Cc8cc9c(cc8C7)C(=O)N(C7CCC(=O)NC7=O)C9=O)CC6)c5)c(C(F)F)cc43)nn2C2CCOCC2)C1` (stereo not shown) [CP-072, 6-(2-(4-(4-(1-(5-acetyl-1-(tetrahydro-2H-pyran-4-yl)-4,5,6,7-tetrahydro-1H-pyrazolo[4,3-c]pyridin-3-yl)-7-(difluoromethyl)-1,2,3,4-tetrahydroquinolin-6-yl)-1H-pyrazol-1-yl)piperidin-1-yl)-2-oxoethyl)-2-(2,6-dioxopiperidin-3-yl)-6,7-dihydropyrrolo[3,4-f]isoindole-1,3(2H,5H)-dione], on CBP, the Dmax was above 90% and the half-maximal degradation concentration (DC50) is below 10 nM. Moreover, in the test on 22Rv1 cells, the pIC50 is above 7.00. The pIC50 with HL60 is above 7.00.

Take `CC(=O)N1CCc2c(c(N3CCCc4cc(-c5cnn(CCCN6Cc7cc8c(cc7C6)C(=O)N(C6CCC(=O)NC6=O)C8=O)c5)c(C(F)F)cc43)nn2C2CCOCC2)C1` (stereo not shown) [CP-073, 6-(3-(4-(1-(5-acetyl-1-(tetrahydro-2H-pyran-4-yl)-4,5,6,7-tetrahydro-1H-pyrazolo[4,3-c]pyridin-3-yl)-7-(difluoromethyl)-1,2,3,4-tetrahydroquinolin-6-yl)-1H-pyrazol-1-yl)propyl)-2-(2,6-dioxopiepridin-3-yl)-6,7-dihydropyrrolo[3,4-f]isoindole-1,3(2H,5H)-dione]: the Dmax at CBP is above 70%. The same compound yielded a DC50 on CBP below 10 nM. Further, the figures for the negative logarithm of the IC50 (pIC50) in the test with 22Rv1 cells and with HL60 were above 5.00 and above 7.00, respectively.

`CC(=O)N1CCc2c(c(N3CCCc4cc(-c5cnn(CCCN6CCc7cc8c(cc7C6)C(=O)N(C6CCC(=O)NC6=O)C8=O)c5)c(C(F)F)cc43)nn2C2CCOCC2)C1` (stereo not shown) [CP-074, 6-(3-(4-(1-(5-acetyl-1-(tetrahydro-2H-pyran-4-yl)-4,5,6,7-tetrahydro-1H-pyrazolo[4,3-c]pyridin-3-yl)-7-(difluoromethyl)-1,2,3,4-tetrahydroquinolin-6-y)-1H-pyrazol-1-yl)propyl)-2-(2,6-dioxopiperidin-3-yl)-5,6,7,8-tetrahydro-1H-pyrrolo[3,4-g]isoquinoline-1,3(2H)-dione]: on CBP, the Dmax was below 50%. In addition, the 50% degradation concentration (DC50) on CBP was above 1000 nM. Moreover, the pIC50 with 22Rv1 cells was above 5.00; with HL60 it was above 7.00.

Source of the values: patent publication US20240150360A1 (THE REGENTS OF THE UNIVERSITY OF MICHIGAN, priority 2021, published 2024).
